Measured values reported in ChEMBL document CHEMBL1133008, “AMP deaminase inhibitors. 2. Initial discovery of a non-nucleotide transition-state inhibitor series” (J Med Chem, 2000).

Biological target: T1, Adenosine deaminase (Bos taurus, UniProt P56658)
T1 sequence (P56658 whole entry): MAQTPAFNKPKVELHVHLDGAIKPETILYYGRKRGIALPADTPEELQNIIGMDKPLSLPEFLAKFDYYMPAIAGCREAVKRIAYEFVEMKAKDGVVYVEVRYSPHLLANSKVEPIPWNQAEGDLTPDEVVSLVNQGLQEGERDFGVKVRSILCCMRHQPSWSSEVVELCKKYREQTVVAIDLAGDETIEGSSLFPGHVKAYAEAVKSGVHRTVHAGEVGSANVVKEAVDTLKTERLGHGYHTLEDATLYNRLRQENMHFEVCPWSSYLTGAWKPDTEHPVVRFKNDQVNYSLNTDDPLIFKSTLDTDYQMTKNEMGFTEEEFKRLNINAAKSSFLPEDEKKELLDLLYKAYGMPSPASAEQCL
Test: Evaluated for the inhibition of calf intestinal Adenosine deaminase (ADA)

Ki [µM] | SMILES
3.6 | OCCCCCCn1cnc2c1N=CNCC2O (centres undefined)
3 | CCOC(=O)CCCCCn1cnc2c1NC=NCC2O (centres undefined)
> 500 | O=C(O)CCCOCn1cnc2c1NC=NCC2O (centres undefined)
> 7.5 | CCOC(=O)C(CCCCn1cnc2c1NC=NCC2O)c1cccc(Br)c1 (centres undefined)
14 | N#CCCCCn1cnc2c1N=CNCC2O (centres undefined)
> 7.5 | O=C(O)C(CCCCn1cnc2c1N=CNCC2O)Cc1ccccc1Br (centres undefined)
> 7.5 | OC1CN=CNc2c1ncn2CCCCCc1nnn[nH]1 (centres undefined)
> 7.5 | O=C(O)CCCCn1cnc2c1NC=NCC2O (centres undefined)
> 500 | COP(=O)(O)CCCCCCn1cnc2c1NC=NCC2O (centres undefined)
> 7.5 | OCCn1cnc2c1NC=NCC2O (centres undefined)
250 | O=C(O)CCCCCCn1cnc2c1N=CNCC2O (centres undefined)
6 | OC1CN=CNc2c1ncn2Cc1ccccc1 (centres undefined)
> 7.5 | O=C(O)C(CCCCn1cnc2c1N=CNCC2O)c1cccc(Br)c1 (centres undefined)
> 7.5 | O=C(O)C(CCCCn1cnc2c1N=CNCC2O)Cc1cccc(Cl)c1 (centres undefined)

Continued, compound first:

SMILES | Ki [µM]
O=C(O)C(CCCCn1cnc2c1NC=NCC2O)(c1ccccc1)c1ccccc1 (centres undefined) | > 7.5
CCOC(=O)C(CCCCn1cnc2c1NC=NCC2O)c1ccccc1 (centres undefined) | > 7.5
O=C(O)C(CCCCn1cnc2c1N=CNCC2O)c1ccccc1 (centres undefined) | > 7.5
OCCCn1cnc2c1N=CNCC2O (centres undefined) | > 7.5
CCCn1cnc2c1NC=NCC2O (centres undefined) | > 20
O=C(O)C(CCCCn1cnc2c1NC=NCC2O)Cc1ccc(Br)cc1 (centres undefined) | > 7.5
CCOC(=O)C(CCCCn1cnc2c1NC=NCC2O)Cc1cccc(Br)c1 (centres undefined) | > 7.5
CCCCn1cnc2c1NC=NCC2O (centres undefined) | 17
CCCCCCCCn1cnc2c1N=CNCC2O (centres undefined) | 0.45
CC(C)(CCCCn1cnc2c1NC=NCC2O)C(=O)O (centres undefined) | > 7.5
N#CCCCn1cnc2c1N=CNCC2O (centres undefined) | > 7.5
CCn1cnc2c1NC=NCC2O (centres undefined) | 28
OCCCCCn1cnc2c1NC=NCC2O (centres undefined) | 4.7
O=P(O)(O)CCCCCCn1cnc2c1N=CNCC2O (centres undefined) | > 7.5
O=P(O)(O)CCCCCn1cnc2c1NC=NCC2O (centres undefined) | > 500
O=C(O)C(CCCCn1cnc2c1NC=NCC2O)Cc1ccccc1 (centres undefined) | > 1000
N#CCCCCCCn1cnc2c1NC=NCC2O (centres undefined) | 1
NC(=O)CCCCCn1cnc2c1NC=NCC2O (centres undefined) | 5.9
O=C(O)CCCCCn1cnc2c1N=CNCC2O (centres undefined) | 280
O=C(O)C(CCCCn1cnc2c1NC=NCC2O)Cc1ccc(Cl)cc1 (centres undefined) | > 7.5
COC(=O)CCCCn1cnc2c1N=CNCC2O (centres undefined) | 3.5
OCCCCn1cnc2c1N=CNCC2O (centres undefined) | 6.3
CCOC(=O)C(C)(CCCCn1cnc2c1NC=NCC2O)Cc1cccc(Br)c1 (centres undefined) | > 7.5
O=C(O)C1(CCCCn2cnc3c2N=CNCC3O)Cc2ccccc2C1 (centres undefined) | > 7.5
O=C(O)C(CCCCn1cnc2c1NC=NCC2O)Cc1cccc(Br)c1 (centres undefined) | > 7.5
O=C(O)CCCCCCCn1cnc2c1NC=NCC2O (centres undefined) | > 7.5
COC(=O)CCCCCCCn1cnc2c1N=CNCC2O (centres undefined) | 0.95
CC(C)CC(CCCCn1cnc2c1NC=NCC2O)(CC(C)C)C(=O)O (centres undefined) | 120
CC(CCCCn1cnc2c1N=CNCC2O)(Cc1cccc(Br)c1)C(=O)O (stereo in doubt; 7v) | > 7.5
CC(CCCCn1cnc2c1N=CNCC2O)(Cc1cccc(Br)c1)C(=O)O (stereo in doubt; 7w) | > 7.5
